# Several values for one entry are separate records, joined by “and”; a condition that tells them apart may be missing. Equal entries are not always repeated. Where two headings read alike, the source gives them in different places.
# Assays:
# [1] = system: PC3 (human prostate cancer cells); assay: SRB cytotoxicity on PC3 cells; assay type: cell-based
# Method: (§2) Cells were seeded in 96-well microtiter plates at densities of 1000 cells/well. The optimal seeding density was determined to ensure exponential growth in control wells throughout the experimental period and to obtain a linear relationship between absorbance at 492 nm and cell number when analyzed by the sulforhodamine B (SRB) assay (43). 24 hours after seeding the cells were incubated for 1 hour or continuously for 3 days with the drugs (concentration range 0.01 to 500 μM). The cells were washed once and then incubated in drug free medium for 6 days. At the end of the incubation cell growth was determined by the SRB assay, which quantifies viable cells by measuring their total cellular protein content. […] Similar studies were conducted against the growth of PC3 (human prostate cancer cells) and MCF-7 (human breast cancer cells).
# [2] = system: human colon adenocarcinoma cell line, LS 174T; assay: SRB cytotoxicity on LS174T cells; assay type: cell-based
# Method: as §2
# [3] = system: K562 human chronic myeloid leukemia cells; assay: MTT cytotoxicity on K562 cells; assay type: cell-based; conditions: K562 cells
# human H522 lung cancer = conditions: hollow fiber
# P815 mastocytoma cells = assay: MTT cytotoxicity on P815 cells; assay type: cell-based, murine; conditions: 72 hr incubation
# Method: (§1) The P815 and L1210 cell lines were obtained from American Type Tissue Culture Collection (ATCC). The cell lines were grown in Delbecco's Modified Eagle Medium (DMEM, Atlanta Biologicals) supplemented with 10% fetal bovine serum, Hepes Buffer (2 mM, Mediatech Cellgro, 25-060-Cl), L-Glutamine (2 mM, Mediatech Cellgro), and penicillin/streptomycin (50,000 units penicillin, 50,000 […], Atlanta Biologicals). Cells were maintained at 37° C. in a 5% humidified CO2 atmosphere. Cultured cells were counted using a hemocytometer and resuspended in fresh DMEM at a concentration of 8×10^5 cells/mL. This cell suspension (100 μL) was added to 96 well flat -bottom cell culture plates. At this concentration, 80,000 cells were seeded in each well. Drug solutions (dissolved in DMSO and diluted in DMEM) were added to each well (5 μL/well) resulting in final concentrations ranging from 1×10^−4 to 1×10^−12 M. Quadruplicate wells were prepared for each drug concentration. The plates were incubated for 72 hr at 37° C. in a 5% CO2 atmosphere. MTT (3-(4,5-dimethylthiazol-2-yl)-2,5-diphenyl tetrazolium bromide) was dissolved in PBS (5 mg/ml). After the indicated cell incubation period, 10 μL of this stock MTT solution was added to each well and the plates were further incubated for 4 h at 37° C. in a 5% CO2 atmosphere. […] The contents of the well were mixed thoroughly by pipetting the cell suspension up and down and the plates were allowed to sit at room temperature for 15 min in order to allow for full development of the purple color. The plates were read on a Dynatech Plate Reader, utilizing Dynex Revelation 3.2 software, with a test wavelenth of 570 nm and a reference wavelength of 630 nm.
# L1210 leukemia cells = assay: MTT cytotoxicity on L1210 cells; assay type: cell-based, murine; conditions: 72 hr incubation
# Method: as §1
# NCI-H460 = assay: NCI screen, NCI-H460 (Non-Small Cell Lung Cancer); assay type: cell-based, human
# Method: (§3) The compounds of this invention were also tested against the panel of 60 human cancer cell lines at the National Cancer Institute, Bethesda, Md. […] The cytrotoxicity studies were conducted using a 48 hour exposure, and measuring the optical density of sulforhodamide B-derived color.
# A549/ATCC = assay: cells; conditions: Homo sapiens, A549, 48 h
# HL-60(TB) = assay type: cell-based
# A498 = assay: NCI screen, A498 (Renal Cancer); assay type: cell-based, human
# Method: as §3
# COLO 205 = assay: NCI screen, COLO 205 (Colon Cancer); assay type: cell-based, human
# Method: as §3
# [4] = Log10 Concentration −4.3, 48 hour exposure
# [5] = Log10 Concentration −5.3, 48 hour exposure
# [6] = Log10 Concentration −6.3, 48 hour exposure
# [7] = Log10 Concentration −7.3, 48 hour exposure
# [8] = Log10 Concentration −8.3, 48 hour exposure
# Method for BT-549: (§4) The compounds of this invention were also tested against the panel of 60 human cancer cell lines at the National Cancer Institute, Bethesda, Md. (44). The cytrotoxicity studies were conducted using a 48 hour exposure, and measuring the optical density of sulforhodamide B-derived color.
# Method for CCRF-CEM: as §3
# Method for DU-145: as §3
# Method for HS 578T: as §4
# Method for K-562: as §3
# Method for MALME-3M: as §3
# Method for MCF7: as §3
# Method for MOLT-4: as §3
# Method for OVCAR-4: as §3
# Method for OVCAR-5: as §3
# Method for RXF 393: as §3
# Method for SF-539: as §3
# Method for U251: as §3
# Method for UO-31: as §3
compound,measurement,setting,value
"O=C(Nc1cc(O)ccc1CCCl)c1cc2cc(NC(=O)c3cc4ccccc4o3)ccc2[nH]1 [Compound 1, 4-(2-Chloroethyl)-3-[5-(5-benzofuran-2-carboxamido)indole-2-carboxamido]phenol]",CC50,RXF 393,4.77 µM
same,CC50,SF-539,9 µM
same,GI50,MALME-3M,1.84 µM
same,TGI,MALME-3M,3.56E−06 Molar
same,Percent Growth,MALME-3M; Log10 Concentration −4.0,−95%
same,Percent Growth,MALME-3M; Log10 Concentration −7.0,102%
same,Percent Growth,MALME-3M; Log10 Concentration −8.0,102%
same,CC50,HS 578T,> 100 µM
same,IC50,"[1]; continuous exposure, read-out: IC50 PC3 Continuous exposure",3 µM
same,IC50,"[1]; read-out: IC50 PC3 1 hour exposure, 1 hour exposure",82.4 µM
same,IC50,"[2]; continuous exposure, read-out: IC50 LS174T Continuous exposure",2.27 µM
same,IC50,"[2]; read-out: IC50 LS174T 1 hour exposure, 1 hour exposure",18 µM
same,CC50,MCF7,5 µM
same,CC50,CCRF-CEM,> 100 µM
same,CC50,UO-31,20 µM
same,IC50,"[3]; continuous exposure (3 days), read-out: IC50 continuous exposure (3 days)",1.47 ± 0.8 µM
same,IC50,"[3]; read-out: IC50 1 hour exposure, 1 hour exposure",12.1 ± 1.8 µM
same,CC50,SR,> 100 µM
same,CC50,U251,53.9 µM
same,CC50,K-562,> 100 µM
same,IP+SC score,human H522 lung cancer,18
same,cell kill,human H522 lung cancer,significant cells kill was observed
same,IP score,human H522 lung cancer; intraperitoneal fibers,8
same,SC score,human H522 lung cancer; subcutaneous fibers,10
same,CC50,BT-549,> 100 µM
same,Percent Growth,DU-145,53%
same,GI50,DU-145; DU-145,1.12 µM
same,TGI,DU-145; DU-145,6.16E−06 Molar
same,Percent Growth,"DU-145; DU-145, Log10 Concentration −4.0",−96%
same,Percent Growth,"DU-145; DU-145, Log10 Concentration −5.0",−14%
same,Percent Growth,"DU-145; DU-145, Log10 Concentration −7.0",104%
same,Percent Growth,"DU-145; DU-145, Log10 Concentration −8.0",101%
same,CC50,OVCAR-5,20 µM
same,Percent Growth,OVCAR-5,−29%
same,GI50,OVCAR-5; OVCAR-5,2.28 µM
same,TGI,OVCAR-5; OVCAR-5,5.80E−06 Molar
same,Percent Growth,"OVCAR-5; OVCAR-5, Log10 Concentration −4.0",−99%
same,Percent Growth,"OVCAR-5; OVCAR-5, Log10 Concentration −6.0",94%
same,Percent Growth,"OVCAR-5; OVCAR-5, Log10 Concentration −7.0",95%
same,Percent Growth,"OVCAR-5; OVCAR-5, Log10 Concentration −8.0",94%
same,IC50,P815 mastocytoma cells,43 µM
same,IC50,L1210 leukemia cells,23 µM
same,Percent Growth,OVCAR-4,108% and 128%
same,GI50,OVCAR-4; OVCAR-4,2.39 µM
same,TGI,OVCAR-4; OVCAR-4,5.06E−06 Molar
same,Percent Growth,"OVCAR-4; OVCAR-4, Log10 Concentration −4.0",−82%
same,Percent Growth,"OVCAR-4; OVCAR-4, Log10 Concentration −5.0",−45%
same,Percent Growth,"OVCAR-4; OVCAR-4, Log10 Concentration −7.0",115%
same,CC50,MOLT-4,> 100 µM
"COC(=O)c1[nH]c2c(O)cc(NC(=O)c3cc4cc(OC)c(OC)c(OC)c4[nH]3)c(CCCl)c2c1C(=O)OC [Compound 22, Dimethyl 4-(2-chloroethyl)-7-hydroxy-5-(5,6,7-trimethoxyindole-2-carboxamido)indole-2,3-dicarboxylate]",TGI,NCI-H460; 48 hour exposure,5.64E−06 Molar
same,Percent Growth,NCI-H460; [4],−69%
same,Percent Growth,NCI-H460; [5],4%
same,Percent Growth,NCI-H460; [6],8%
same,Percent Growth,NCI-H460; [7],73%
same,Percent Growth,NCI-H460; [8],84%
same,GI50,A549/ATCC,0.135 µM
same,CC50,A549/ATCC; read-out: LC50,> 50 µM
same,TGI,HL-60(TB); 48 hour exposure,>5.00E−05 Molar
same,Percent Growth,HL-60(TB); [4],3%
same,Percent Growth,HL-60(TB); [5],9%
same,Percent Growth,HL-60(TB); [6],10%
same,Percent Growth,HL-60(TB); [7],54%
same,Percent Growth,HL-60(TB); [8],85%
same,TGI,A498; 48 hour exposure,5.15E−06 Molar
same,Percent Growth,A498; [4],−82%
same,Percent Growth,A498; [5],1%
same,Percent Growth,A498; [6],5%
same,Percent Growth,A498; [7],98%
same,Percent Growth,A498; [8],95%
same,TGI,COLO 205; 48 hour exposure,>5.00E−05 Molar
same,Percent Growth,COLO 205; [4],20%
same,Percent Growth,COLO 205; [5],23%
same,Percent Growth,COLO 205; [6],31%
same,Percent Growth,COLO 205; [7],88%
same,Percent Growth,COLO 205; [8],95%
